# Reference: patent publication US20240158446A1, “CYCLIC COMPOUND HAVING SELECTIVE INHIBITORY ACTION ON KRAS OVER HRAS AND NRAS” (CHUGAI SEIYAKU KABUSHIKI KAISHA, priority 2021, published 2024)
# Legend:
# [1] = test system: human lung cancer strain NCI-H441;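 also: cell proliferation inhibition after four days measured by CellTiter-Glo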
# [2] = molecular target: GDP-bound KRAS wild-type protein (Homo sapiens, UniProt P01116); test: Binding to KRAS by surface plasmon resonance (SPR), Single Cycle Kinetics; settings: SPR, Single Cycle Kinetics, 1:1 binding model; GDP-bound KRAS wild-type protein; read-out: KRAS KD
# [3] = molecular target: GDP-bound HRAS wild-type protein (Homo sapiens, UniProt P01112); test: Binding to HRAS by surface plasmon resonance (SPR), Single Cycle Kinetics; settings: SPR; GDP-bound HRAS wild-type protein vs GDP-bound KRAS wild-type protein; KD ratio class
# [4] = molecular target: GDP-bound NRAS wild-type protein (Homo sapiens, UniProt P01111); test: Binding to NRAS by surface plasmon resonance (SPR), Single Cycle Kinetics; settings: SPR; GDP-bound NRAS wild-type protein vs GDP-bound KRAS wild-type protein; KD ratio class
# Sequence of GDP-bound NRAS wild-type protein (P01111 whole entry): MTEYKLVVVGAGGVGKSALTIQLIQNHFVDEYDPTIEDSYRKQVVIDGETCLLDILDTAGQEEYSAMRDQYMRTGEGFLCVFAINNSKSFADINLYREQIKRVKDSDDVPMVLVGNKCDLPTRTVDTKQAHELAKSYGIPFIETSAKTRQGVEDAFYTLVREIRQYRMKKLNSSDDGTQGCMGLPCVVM
# Sequence of GDP-bound KRAS wild-type protein (P01116 whole entry): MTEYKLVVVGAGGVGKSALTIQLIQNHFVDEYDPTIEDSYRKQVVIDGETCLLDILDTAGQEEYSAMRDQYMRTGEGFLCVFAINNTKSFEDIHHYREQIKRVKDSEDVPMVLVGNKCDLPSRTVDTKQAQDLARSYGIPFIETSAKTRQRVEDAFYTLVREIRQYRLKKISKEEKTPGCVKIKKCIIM
# Sequence of GDP-bound HRAS wild-type protein (P01112 whole entry): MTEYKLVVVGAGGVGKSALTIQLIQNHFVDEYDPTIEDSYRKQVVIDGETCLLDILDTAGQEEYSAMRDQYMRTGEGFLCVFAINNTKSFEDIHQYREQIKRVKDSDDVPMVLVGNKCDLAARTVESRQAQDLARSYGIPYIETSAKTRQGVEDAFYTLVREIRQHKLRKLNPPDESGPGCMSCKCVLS
Compound,IC50 [1] [nM],Kd [2] [nM],HRAS/KRAS (ratio of KD value for HRAS to KD value for KRAS) [3],NRAS/KRAS (ratio of KD value for NRAS to KD value for KRAS) [4]
"CCO[C@@H]1C[C@H]2C(=O)NC3(CCC3)C(=O)N(C)[C@@H](C3CCCC3)C(=O)N(C)[C@H](C(=O)N(C)C)CC(=O)N(C)[C@@H](CC3CC3)C(=O)N[C@@H]([C@@H](C)CC)C(=O)N(C)CC(=O)N(C)[C@H]3C/C=C\CCN(C3=O)[C@@H](Cc3ccc(C(F)(F)F)cc3)C(=O)N(C)CC(=O)N[C@@H](CCc3ccc(C(F)(F)F)c(OC)c3)C(=O)N2C1 [PP1247, (2S,8S,12R,14S,20S,23S,27S,30S,36S,38Z)-20-cyclopentyl-27-(cyclopropylmethyl)-12-ethoxy-8-[2-[3-methoxy-4-(trifluoromethyl)phenyl]ethyl]-N,N,4,19,22,26,32,35-octamethyl-30-[(1S)-1-methylpropyl]-3,6,9,15,18,21,25,28,31,34,42-undecaoxo-2-[[4-(trifluoromethyl)phenyl]methyl]spiro[1,4,7,10,16,19,22,26,29,32,35-undecazatricyclo[34.5.1.0^10,14]dotetracont-38-ene-17,1′-cyclobutane]-23-carboxamide]",6.4,0.046,A (a compound having 10 or more and less than 20 is denoted as A),A (a compound having 10 or more and less than 20 is denoted as A)
"CCO[C@@H]1C[C@H]2C(=O)NC3(CCC3)C(=O)N(C)[C@@H](C3CCCC3)C(=O)N(C)[C@H](C(=O)N(C)C)CC(=O)N(C)[C@@H](CC3CCCC3)C(=O)N[C@@H]([C@@H](C)CC)C(=O)N(C)CC(=O)N(C)[C@H]3C/C=C\CCN(C3=O)[C@@H](Cc3ccc(C(F)(F)F)cc3)C(=O)N(C)CC(=O)N[C@@H](CCc3ccc(C(F)(F)F)c(OC)c3)C(=O)N2C1 [PP1248, (2S,8S,12R,14S,20S,23S,27S,30S,36S,38Z)-20-cyclopentyl-27-(cyclopentylmethyl)-12-ethoxy-8-[2-[3-methoxy-4-(trifluoromethyl)phenyl]ethyl]-N,N,4,19,22,26,32,35-octamethyl-30-[(1S)-1-methylpropyl]-3,6,9,15,18,21,25,28,31,34,42-undecaoxo-2-[[4-(trifluoromethyl)phenyl]methyl]spiro[1,4,7,10,16,19,22,26,29,32,35-undecazatricyclo[34.5.1.0^10,14]dotetracont-38-ene-17,1′-cyclobutane]-23-carboxamide]",7.3,0.069,A (a compound having 10 or more and less than 20 is denoted as A),A (a compound having 10 or more and less than 20 is denoted as A)
CCO[C@@H]1C[C@H]2C(=O)NC3(CCC3)C(=O)N(C)[C@@H](C3CCCC3)C(=O)N(C)[C@H](C(=O)N(C)C)CC(=O)N(C)[C@@H](CC)C(=O)N[C@@H]([C@@H](C)CC)C(=O)N(C)CC(=O)N(C)[C@H]3C/C=C\CCN(C3=O)[C@@H](Cc3ccc(C(F)(F)F)cc3)C(=O)N(C)CC(=O)N[C@@H](CCc3ccc(Cl)c(Cl)c3)C(=O)N2C1 [PP1249],55.4,0.18,A (a compound having 10 or more and less than 20 is denoted as A),A (a compound having 10 or more and less than 20 is denoted as A)
CCC[C@H]1C(=O)N[C@@H]([C@@H](C)CC)C(=O)N(C)CC(=O)N(C)[C@H]2C/C=C\CCN(C2=O)[C@@H](Cc2ccc(C(F)(F)F)cc2)C(=O)N(C)CC(=O)N[C@@H](CCc2ccc(Cl)c(Cl)c2)C(=O)N2C[C@H](OCC)C[C@H]2C(=O)NC2(CCC2)C(=O)N(C)[C@@H](C2CCCC2)C(=O)N(C)[C@H](C(=O)N(C)C)CC(=O)N1C [PP1250],18.7,0.19,A (a compound having 10 or more and less than 20 is denoted as A),AA (a compound having 20 or more is denoted as AA)
